In patent US9790286B2, “Stereoisomer peptides, their polymer conjugates, their encapsulation into nanoparticles, and uses thereof for the treatment of diseases caused by abnormal angiogenesis” (priority 2013, dated 2017):

Experiments:
[1] = tested on: PANC-1 Xenograft; experiment: PANC-1 xenograft mouse model of pancreatic ductal carcinoma; type: in vivo; settings: 120 mg/Kg i.p. twice a week for 6 weeks
Experimental: (§1) Peptides in their stereoisomer forms were tested in vivo using two mouse models of human pancreatic ductal adenocarcinoma: the PANC-1 Xenograft mouse model and the MiaPaca-2 Xenograft mouse model. Athymic male nude mice (nu/nu) were injected s.c. with cultured […] human pancreatic cancer cells from each different model in the right mice flanks After tumors reached ˜150 mm^3 mice were randomly separated into three groups (n=3/group). Group 1 was treated with vehicle; Group 2 was treated with 120 mg/Kg Gemcitabine (standard established dose); and Group 3 was treated with 25 mg/kg of a combination of four stereoisomer peptides. Mice were dosed by i.p. injection twice a week for 6 weeks.

[2] = tested on: MiaPaca-2 Xenograft; experiment: MIAPaCa-2 xenograft mouse model of pancreatic ductal carcinoma; type: in vivo; settings: 120 mg/Kg i.p. twice a week for 6 weeks
Experimental: as §1
In this model the tumors of treated mice grew slowly compared to untreated mice (see FIG. 14A). […] These two human mouse models confirm the therapeutic potency, efficacy, and value of the stereoisomer peptides to treat pancreatic cancer, one of the deadliest cancers for which there are no therapies.

## Nc1ccn([C@@H]2O[C@H](CO)[C@@H](O)C2(F)F)c(=O)n1 [Gemcitabine]
[1]
  condition of mice: moribund
[2]
  body weight: lost body weight
  condition of mice: moribund
  livers after euthanasia: dark with signs of necrosis
